# Laboratory results published in article PMC9656482, “In Vitro and In Vivo Biological Activity of Ruthenium 1,10-Phenanthroline-5,6-dione Arene Complexes” (International Journal of Molecular Sciences, 2022).
# “And” between values parts separate entries of the source, which are not always exact repeats. Equal entries are not always repeated.
# Experiments:
# [1] = system: doxorubicin-resistant HCT116 (HCT116-Dox); details: read-out: Relative IC50, HCT116-Dox; 48 h incubation, MTS
# Protocol: (§1) The cytotoxic potential of the complexes was evaluated by assessing their viability using the 3-(4,5-dimethylthiazol-2-yl)-5-(3-carboxymethoxyphenyl)-2-(4-sulfophenyl)-2H tetrazolium, inner salt (MTS) colorimetric assay in three tumor cell lines—ovarian carcinoma, A2780, colorectal carcinoma, HCT116, and colorectal carcinoma resistant to doxorubicin, HCT116-Dox and in normal human primary dermal fibroblasts (Figure 1 and Figure S7).
# (§2) Normal dermal human fibroblasts, colorectal carcinoma cell line HCT116 and ovarian carcinoma cell line A2780 were acquired from ATCC (Manassas, VA, USA). HCT116 cell lines resistant to doxorubicin (HCT116-Dox) were derived from the HCT116 cell line, as previously described. Fibroblasts and HCT116 cells were cultured in Dulbecco’s modified Eagle medium (DMEM, Thermo Fisher Scientific) and A2780 cell line was cultured on Roswell Park Memorial institute 1640 (RPMI-1640, Thermo Fisher Scientific). Both media were supplemented with 10% (v/v) fetal bovine serum (FBS, Thermo Fisher Scientific) and a mixture of 100 U/mL penicillin and […] streptomycin. The supplemented media are referred to from this point on as DMEM or RPMI for simplicity.
# [2] = system: normal human dermal fibroblasts; details: read-out: Relative IC50, Fibroblasts; 48 h incubation, MTS
# Protocol: as §1, §2
# A2780 cells [3] = experiment: Trypan blue exclusion method; assay type: cell-based, human; details: A2780, 48 h
# Protocol: A2780 cells were exposed for 48 h to the IC50 of JHOR11, and to a concentration 10 times higher and 10 times lower the IC50, and the live (transparent) and dead (blue) cells that remained adherent or in the supernatant were counted (Figure 6). A2780 cells were also incubated with 0.1% (v/v) DMSO as a vector control, and 0.1 µM doxorubicin as positive control (Supplementary Information, Figure S8).
# A2780 cells were seeded on a 24-well culture plate at a density of 37,500 cells/well. After 24 h to assure cell adherence, the medium was replaced by fresh RPMI supplemented with 0.1% (v/v) DMSO, 0.1 µM Doxorubicin or JHOR11 complex in three different concentrations: 1/10 IC50, IC50 or 10 × IC50. After 8 h, 24 h or 48 h incubation, the supernatant was removed and mixed with trypan blue (Thermo Fisher Scientific) to a final concentration 0.1% (w/v). In parallel, cells were detached from the well, centrifuged at 500× g and pellet was resuspended in 0.1% (w/v) Trypan blue. The number of viable cells and cells with compromised membrane (stained with blue) in both fractions were counted in a haemocytometer (Hirschmann, Eberstadt, Germany) and a CXX41 inverted microscope (Olympus, Tokyo, Japan).
# A2780 cells [4] = experiment: Senescence assay (beta-galactosidase fluorescence); assay type: cell-based, human; details: A2780, 48 h, IC50 of JHOR11, relative to DMSO
# Protocol: The senescence of A2780 cells after 48 h incubation with IC50 of JHOR11 was also analyzed to add more insights into the mechanism of action of the complex. Premature cellular senescence is an irreversible state of cell cycle arrest that occurs in response to intrinsic and extrinsic insults to the cell that induce DNA damage, oxidative stress, or nutrient depletion. The percentage of senescent cells was measured using the senescence assay kit (Abcam) that allows the quantification of the senescence-associated expression of beta-galactosidase activity by flow cytometry. […] [36].
# The cell senescence analysis was performed using the Senescence assay kit (beta galactosidade fluorescence, Abcam, Cambridge, UK) according to the manufacturer’s instruction with few modifications. Briefly, A2780 cells were seeded in 24 well-plates to a final cell density of 4 × 10^5 cells/well. After 24 h incubation, to assure cell adhesion to the wells, the medium was replaced by fresh media supplemented with 0.1% (v/v) DMSO, for vector control, 3.5 µM cisplatin, 0.1 µM Doxorubicin, or IC50 JHOR11. […] Pelleted cells were washed with wash buffer, resuspended in the same buffer and the percentage of fluorescent cells in each sample was immediately measured in an Attune focusing flow cytometer and respective software (Thermo Fisher Scientific).
# zebrafish embryos = experiment: In vivo toxicity assessment using zebrafish embryos
# Protocol: The toxicity of the JHOR10 and JHOR11 compounds was assayed in zebrafish embryos. There was a NOEC (No Observed Effect Concentration) in the case of JHOR11 of 80 µM (Table 2). The NOEC is the concentration used for the xenotransplantation experiments in order not to affect the normal development of the embryos and being able, in parallel, to assay the effect of the compound over the injected cells. Apart from that, the mortality assayed in the toxicity assays supports the concentration obtained in the NOEC, with a low mortality of the embryos when they are incubated with JHOR11 (Figure 13 and Figure 14).
# Wild-type zebrafish were housed in 30 L tanks within a water recirculation system under controlled physicochemical conditions: pH 7–7.5, temperature 26 ± 2 °C, conductivity 600 µS/cm and light/dark photoperiod of 14/10 h. The adult fish were fed Gemma Micro 300 (Skretting) twice a day. Fertilized eggs were collected after natural spawning and stored in Petri dishes for 48 h until being injected, or 72 h until being exposed to different concentrations of ruthenium compounds.
# At 72 h post-fertilization (hpf), the embryos were exposed to increasing concentrations of two ruthenium compounds to determine toxicological estimates: LC50 with no observed effect concentration (NOEC) and lowest observed effect concentration (LOEC). The acute toxicity assessment of the compounds was performed following the standards of the OECD Test Guideline Program.
# The embryos were individually transferred to 96-well plates containing 100 µL of each desired concentration. The plates were then placed in an incubator with a temperature of 26 °C and a photoperiod of 14 h of light and 10 h of darkness. The duration of the experiment was 96 h, and observations were made every 24 h recording the four lethal effects indicated by the OECD: embryo coagulation, absence of somite formation, absence of separation of the yolk tail and absence of heartbeat. All compounds were dissolved with dimethylsulfoxide (DMSO) with a final concentration of 1%. In each test, seven concentrations were analyzed for each compound, these being: JHOR10 (10, 20, 30, 40, 50, 55, 60 µM) and JHOR11 (50, 80, 100, 140, 200, 300, 400 µM).
# For the evaluation of toxicity, the mortality data were analyzed by probit analysis with the ToxRat software (ToxRat Solutions. 2003. ToxRat®. Software for the statistical analysis of biotests. Alsdorf, Germany).
# chicken embryo = experiment: Ex ovo chorioallantoic membrane (CAM) assay
# Protocol: Each chicken embryo was exposed to the IC50 of JHOR11 and 0.1% (v/v) DMSO as vector control and the number of vessels in each treated region was counted at 0 h, and after 24 h and 48 h incubation at 37 °C, as previously described [39].
# The CAM assay was performed as previously described [18, 39, 43]. Fertilized eggs with 48 h incubation were opened and stabilized for 24 h in white weighing boats. Two silicone rings were positioned in each embryo and 40 mL IC50 JHOR11 in phosphate-buffered saline (PBS) or 0.1% (v/v) DMSO in PBS, as vector control, were placed in each o-ring. The region delimited by each o-ring was photographed at 0 h, 24 h, 48 h with a digital USB microscope camera (Opti-Tekscope OT-V1). The newly formed veins were counted using ImageJ as previously described [37], and values were presented after normalization with the values obtained for control sample.
# [5] = zebrafish embryos exposed from 72 hpf, 96 h
smiles,measurement,setting,value
Cc1ccc(C(C)C)cc1.F[P-](F)(F)(F)(F)F.O=C1C(=O)c2cccnc2-c2ncccc21.[Cl][Ru+] [JHOR11],IC50,[1],6.8 ± 0.3 µM
same,IC50,[2],44.5 ± 2.2 µM
same,cells in the supernatant at 1/10 IC50 (Trypan blue),A2780 cells [3]; 1/10 IC50,exclusively live cells
same,cells in the supernatant with increasing concentration (Trypan blue),"A2780 cells [3]; 1/10 IC50, IC50, 10 × IC50",increased percentage of cells in the supernatant
same,percentage of senescent cells,A2780 cells [4],increased percentage of senescent cells
same,LC50,zebrafish embryos; [5],225 µM
same,NOEC (No Observed Effect Concentration),zebrafish embryos; [5],80 µM and 80.00 µM
same,mortality of the embryos,zebrafish embryos; zebrafish embryos incubated with compound,low mortality
same,newly formed vessels (angiogenesis),"chicken embryo; IC50 of JHOR11, 24 h and 48 h, versus DMSO-treated regions",no anti- or pro-angiogenic effects
same,death of chicken embryos,"chicken embryo; six embryos, 48 h, IC50 of JHOR11",did not induce the death
